Eleven compounds from US12448383B2, “Compounds and methods for treatment of viral infections” (priority 2022, dated 2025) can be followed below.

The test system of data set [1] is Respiratory syncytial virus recombinant with luciferase (RSV-Luc5) in HEp-2 cells. The data set can be described thus: microbe, parasite or virus in culture. Format: cell-based. The following applies: human respiratory syncytial virus, HEp-2, 72 h, read-out: RSV Hep2 EC50.
For data set [2], the system named is SARS Coronavirus 2 recombinant with NanoLuc (SARS-CoV2-NLuc) in A549-hACE2 cells. As to the kind of experiment: organism not typed. The following applies: 48 h; read-out: SARS-CoV2 EC50. Format: cell-based.
Data set [3] concerns Respiratory syncytial virus recombinant with luciferase (RSV-Luc5) in Normal Human Bronchial Epithelial (NHBE) cells. As to the kind of experiment: microbe, parasite or virus in culture. Format: cell-based. The following applies: 72 h, read-out: RSV NHBE EC50.
Data set [4] can be described thus: CC50 MT4 cytotoxicity (Cell-Titer Glo). Format: cell-based. The conditions noted are these: human. The method, boiled down: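 Uninfected MT-4 and HEp-2 cells cultured 4-5 days at 37° C with 3-fold serially diluted compound (15 nM to 100,000 nM). Viability read by Cell-Titer Glo luminescence; untreated and 2 μM puromycin wells set 100% and 0%. CC50 from non-linear regression as concentration reducing viability by 50%.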

Another data set is described as follows: GI S9 stability. Format: in vitro ADME. How it is done: Example G: GI S9 Stability
Duplicate aliquots of test compound or positive control substrate (GS-7340) were added to S9 stock diluted with 100 mM phosphate buffered saline, pH 7.4, to obtain a protein concentration of 1.0 mg/mL. The S9 metabolic reactions were initiated by the addition of the substrates to the S9 reaction mixture to a final concentration of 2 μM. At 0, 10, 20, 30, 60 and 120 min, […] aliquots of the reaction mixture were transferred to plates containing […] of IS/Q solution. After quenching, the plates were centrifuged at 3000 g for 30 minutes, and 150 μL aliquots of each supernatant were diluted with 150 μL water. Aliquots ([…]) of the diluted supernatant were analyzed on a Thermo Q-Exactive mass spectrometer as described below. GI S9 Stability—No phenylmethylsulfonyl fluoride (PMSF): Similar to the procedure described above, test compounds were incubated at 2 μM with 1 mg/mL PMSF-free Intestinal S9 fractions. Samples are removed at 6 time points over the course of a 120 min experiment and the parent compound disappreance and reference compound A formation is determined by mass spectrometry.
Example K: Liquid Chromatography/Mass Spectroscopy Methods for S9 and Plasma Stability
Quantification of test compounds, Reference Compound A (S9 stability assay nucleoside metabolite), and controls was performed by analyte/internal standard peak area ratio (PAR) values measured on a Thermo Q-Exactive mass spectrometer coupled to a Dionex UltiMate 3000 HPLC with a Leap Technologies HTC PAL autosampler. The column used for analysis of test compounds and Reference Compound A was a Waters Acquity BEH C18 ([…] particle size, 2.1′50 mm). The column used for control (GS-7340) was a Thermo Hypersil GOLD ([…] particle size, 2.1′50 mm). Mobile phase A consisted of 0.1% (v/v) formic acid in water. Mobile phase B consisted of 0.1% (v/v) formic acid in acetonitrile. Elution of analytes was achieved by a series of linear gradients of acetonitrile in water containing 0.1°(v/v) formic acid. The mass spectrometer was calibrated on a weekly basis and mass tolerance of 5 ppm was used.

Data set [5] can be described thus: GI S9 stability - no PMSF. The conditions noted are these: pH 7.4; human intestinal S9, PMSF-free; read-out: GIS9-HUMAN-NoPMSF T1/2. Format: in vitro ADME. The method, boiled down: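 Compounds were incubated at 2 μM with PMSF-free intestinal S9 (1 mg/mL protein) in 100 mM PBS, pH 7.4, sampling at 6 time points over 120 min. Parent disappearance and formation of the nucleoside metabolite Reference Compound A were quantified by LC-MS (Q-Exactive) using analyte/internal standard peak area ratios.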

The nature of the next data set: Plasma stability. Format: in vitro ADME. Details: unit not given here. The conditions noted are these: 37° C., 2 μM substrate. In short, it runs like this: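 Reaction mixture was sampled at 0.05, 0.5, 1, 2, 3 and 4 hr into quench solution containing internal standard, then centrifuged and diluted with water. Remaining analyte was measured by LC-MS on a Q-Exactive using a formic acid/acetonitrile gradient, with 5 ppm mass tolerance.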

For data set [6], the system named is Caco-2 cells (clone C2BBe1). The data set can be described thus: CACO-2 permeability. Format: in vitro ADME. Details: unit not given here. The conditions noted are these: for DM Caco2 A to B: apical to basolateral, donor pH 6.5, receiver pH 7.4; for DM Caco2 B to A: basolateral to apical. In short, it runs like this:
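Caco-2 monolayers grown 21 days on collagen-coated transwells and checked for integrity by TEER. Donor buffer was HBSS/HEPES/glucose pH 6.5 with 200 μM BNPP; receiver was pH 7.4 with BSA. Compounds were dosed apically or basolaterally for A-to-B and B-to-A transport, with receiver sampling at 1 and 2 h, LC-MS/MS analysis and percent recovery.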
(Passage across Caco-2 layers is used to estimate intestinal permeability.)

Each structure is given as a SMILES string. pEC50: −log10 of the molar value. Where two headings read alike, the source gives them in different places.

With `CC(C)COC(=O)OC[C@H]1O[C@@](C#N)(c2ccc3c(N)ncnn23)[C@H](O)[C@@H]1O` [Compound 1, ((2R,3S,4R,5R)-S-(4-aminopyrrolo[2,1-f][1,2,4]triazin-7-yl)-5-cyano-3,4-dihydroxytetrahydrofuran-2-yl)methyl isobutyl carbonate], the pEC50 (commonly the EC50 on a negative log10 scale, so that one unit is a factor of ten) in data set [1] is 6.37; in data set [2], 5.73; in data set [3] it was 5.66. In addition, the cytotoxic concentration (CC50) (usually the concentration giving 50% cytotoxicity) in data set [4] is greater than 46.4 µM. Besides, the half-life at 2 µM in the data set “GI S9 stability” (human, s9, pH 7.4) was 113 min; in data set [5], 1.45 min. The “STA Human Plasma 37” value in the data set “Plasma stability” worked out at 28.434. Moreover, in data set [6], the “DM Caco2 A to B” value turned out to be 0.275. Also, the “DM Caco2 B to A” value in data set [6] is listed as 3.853.

As to `CC(C)COC(=O)Nc1ncnn2c([C@]3(C#N)O[C@H](COC(=O)OCC(C)C)[C@@H](O)[C@H]3O)ccc12` [Compound 2, isobutyl (7-((2R,3R,4S,5R)-2-cyano-3,4-dihydroxy-5-(((isobutoxycarbonyl)oxy)methyl)tetrahydrofuran-2-yl)pyrrolo[2,1-f][1,2,4]triazin-4-yl)carbamate], the negative-log EC50 (pEC50) in data set [1] was 5.18; in data set [2] it was less than 4.30; in data set [3], 5.02. In addition, the CC50 in data set [4] was greater than 50 µM. The compound also came in with a half-life at 2 µM in “GI S9 stability” (human, s9, pH 7.4) of 157 min. Also, the “STA Human Plasma 37” value in the data set “Plasma stability” was 344.3. Besides, the “DM Caco2 A to B” value in data set [6] is 1.17. In addition, in data set [6], the “DM Caco2 B to A” value was 8.69.

Take `COC(=O)OC[C@H]1O[C@@](C#N)(c2ccc3c(N)ncnn23)[C@H](O)[C@@H]1O` [Compound 5, ((2R,3S,4R,5R)-5-(4-aminopyrrolo[2,1-f][1,2,4]triazine-7-yl)-5-cyano-3,4-dihydroxytetrahydrofuran-2-yl)methyl methyl carbonate]: the figures for the pEC50 in data set [1], in data set [2] and in data set [3] were 5.54, 4.88 and 5.45, respectively. The compound also came in with a CC50 in data set [4] greater than 50 µM. Further, the half-life at 2 µM was no less than 789 min in the data set “GI S9 stability” (human, s9, pH 7.4) and 74.8 min in data set [5]. The “STA Human Plasma 37” value in “Plasma stability” was 1388.9.

`N#C[C@@]1(c2ccc3c(N)ncnn23)O[C@H](COC(=O)Oc2ccccc2)[C@@H](O)[C@H]1O` [Compound 7, ((2R,3S,4R,5R)-5-(4-aminopyrrolo[2,1-f][1,2,4]triazin-7-yl)-5-cyano-3,4-dihydroxytetrahydrofuran-2-yl)methyl phenyl carbonate]: the results for the negative logarithm of the EC50 (pEC50) in data set [1], in data set [2] and in data set [3] were 6.38, 6.04 and 5.87, respectively. Further, it took 47.4 µM to reach half-maximal cytotoxicity in data set [4] (CC50). In “GI S9 stability” (human, s9, pH 7.4), this compound returned a half-life at 2 µM of 54 min. For the same compound, the “STA Human Plasma 37” value in “Plasma stability” came to 6.563. Further, the “DM Caco2 A to B” value in data set [6] worked out at 0.52. The “DM Caco2 B to A” value in data set [6] is reported as 8.98.

On to `CCCOC(=O)OC[C@H]1O[C@@](C#N)(c2ccc3c(N)ncnn23)[C@H](O)[C@@H]1O` [Compound 8, ((2R,3S,4R,5R)-5-(4-aminopyrrolo[2,1-f][1,2,4]triazin-7-yl)-5-cyano-3,4-dihydroxytetrahydrofuran-2-yl)methyl propyl carbonate], for which the pEC50 is 6.52 in data set [1], 5.99 in data set [2] and 5.74 in data set [3]. In data set [4] (uninfected MT-4 cells, 4-5 days, read-out: MT4 CC50), the CC50 is greater than 50 µM. Further, the half-life at 2 µM in the data set “GI S9 stability” (pH 7.4, human intestinal S9, read-out: GIS9 Human T1/2) was 159 min; in data set [5], 0.58 min. For the same compound, the “STA Human Plasma 37” value in the data set “Plasma stability” is given as 11.698.

As to `N#C[C@@]1(c2ccc3c(N)ncnn23)O[C@H](COC(=O)OC2CC2)[C@@H](O)[C@H]1O` [Compound 9, ((2R,3S,4R,5R)-5-(4-aminopyrrolo[2,1-f][1,2,4]triazin-7-yl)-5-cyano-3,4-dihydroxytetrahydrofuran-2-yl)methyl cyclopropyl carbonate], the negative-log EC50 (pEC50) in data set [1] was 6.11; in data set [2] it was 5.64; in data set [3] it was 5.74. This compound also returned a CC50 in data set [4] greater than 50 µM. The half-life at 2 µM in the data set “GI S9 stability” (human, s9, pH 7.4) turned out to be 311 min. Moreover, the “STA Human Plasma 37” value in “Plasma stability” is 156.68. For the same compound, in data set [6], the “DM Caco2 A to B” value turned out to be 0.39. Further, in data set [6], the “DM Caco2 B to A” value turned out to be 5.17.

Regarding `COCCOC(=O)OC[C@H]1O[C@@](C#N)(c2ccc3c(N)ncnn23)[C@H](O)[C@@H]1O` [Compound 10, ((2R,3S,4R,5R)-5-(4-aminopyrrolo[2,1-f][1,2,4]triazine-7-yl)-5-cyano-3,4-dihydroxytetrahydrofuran-2-yl)methyl (2-methoxyethyl) carbonate], the pEC50 was 5.40 in data set [1], 4.85 in data set [2] and 5.52 in data set [3]. The compound further returned a 50% cytotoxic concentration (CC50) in data set [4] greater than 50 µM. In the data set “GI S9 stability” (human, s9, pH 7.4), this compound returned a half-life at 2 µM of no less than 789 min. For the same compound, the “STA Human Plasma 37” value in the data set “Plasma stability” came to 43.569. Besides, the “DM Caco2 A to B” value in data set [6] stood at 0.08. Besides, in data set [6], the “DM Caco2 B to A” value was determined as 1.39.

`N#C[C@@]1(c2ccc3c(N)ncnn23)O[C@H](COC(=O)OC2CCOC2)[C@@H](O)[C@H]1O` (stereo partly drawn) [Compound 11, ((2R,3S,4R,5R)-5-(4-aminopyrrolo[2,1-f][1,2,4]triazin-7-yl)-5-cyano-3,4-dihydroxytetrahydrofuran-2-yl)methyl (tetrahydrofuran-3-yl) carbonate]: the pEC50 in data set [1] was 5.31; in data set [2], 4.69; in data set [3] it was 5.53. In data set [4], this compound registered a CC50 greater than 50 µM. Besides, the half-life at 2 µM in “GI S9 stability” (human, s9, pH 7.4) is no less than 789 min. Also, the “STA Human Plasma 37” value in “Plasma stability” was determined as 135.19.

With `N#C[C@@]1(c2ccc3c(N)ncnn23)O[C@H](COC(=O)OC2CCCC2)[C@@H](O)[C@H]1O` [Compound 12, ((2R,3S,4R,5R)-5-(4-aminopyrrolo[2,1-f][1,2,4]triazin-7-yl)-5-cyano-3,4-dihydroxytetrahydrofuran-2-yl)methyl cyclopentyl carbonate], the pEC50 in data set [1] is 6.18; in data set [2], 5.63; in data set [3] it was 5.80. Also, in data set [4], the half-maximal cytotoxic concentration (CC50) was greater than 50 µM. In the data set “GI S9 stability” (human, s9, pH 7.4), this compound yielded a half-life at 2 µM of 58 min. Moreover, the “STA Human Plasma 37” value in “Plasma stability” stood at 35.623. The “DM Caco2 A to B” value in data set [6] amounted to 1.15. Moreover, the “DM Caco2 B to A” value in data set [6] is 13.73.

For the compound `CC(C)COC(=O)OC[C@H]1O[C@@](C#N)(c2ccc3c(N)ncnn23)[C@H](OC(=O)C(C)C)[C@@H]1OC(=O)C(C)C` [Compound 16, (2R,3R,4R,5R)-2-(4-aminopyrrolo[2,1-f][1,2,4]triazin-7-yl)-2-cyano-5-(((isobutoxycarbonyl)oxy)methyl)tetrahydrofuran-3,4-diyl bis(2-methylpropanoate)], the pEC50 was 5.94 in data set [1], 5.59 in data set [2] and 6.01 in data set [3]. The compound further came in with a half-maximal cytotoxic concentration (CC50) in data set [4] of 27.8 µM. Besides, the half-life at 2 µM in the data set “GI S9 stability” (human, s9, pH 7.4) worked out at 1.01 min. In addition, the “STA Human Plasma 37” value in “Plasma stability” amounted to 30.6.

Regarding `CC(C)(C)COC(=O)OC[C@H]1O[C@@](C#N)(c2ccc3c(=N)n(COP(=O)(O)O)cnn23)[C@H](O)[C@@H]1O` [Compound 19, ((2R,3S,4R,5R)-5-cyano-3,4-dihydroxy-5-(4-imino-3-((phosphonooxy)methyl)-3,4-dihydropyrrolo[2,1-f][1,2,4]triazin-7-yl)tetrahydrofuran-2-yl)methyl neopentyl carbonate], the pEC50 is 5.91 in data set [1], 5.11 in data set [2] and 5.27 in data set [3]. Besides, the CC50 in data set [4] was greater than 50 µM. The same compound came in with a half-life at 2 µM in “GI S9 stability” (human, s9, pH 7.4) of 27.4 min. The “STA Human Plasma 37” value in “Plasma stability” is 1584.
